Data taken from patent US7612064B2, “Sulfopyrroles” (Takeda Pharmaceutical Company Limited, priority 2003, dated 2009).
pIC50: −log10 of the molar value.

Columns and labels:
[1] = Hoechst 33342 nuclear staining; assay type: cell-based; settings: for Hoechst 33342 nuclear staining score, H460: H460 cells; for Hoechst 33342 nuclear staining score, HeLa: HeLa cells; for Hoechst 33342 nuclear staining score, Jily: Jily cells; for Hoechst 33342 nuclear staining score, Jurkat: Jurkat cells; for Hoechst 33342 nuclear staining score, MRC5: MRC5 cells;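 on all read-outs here: apoptotic nuclei scored 0 none 1 weak under 50% of cells 2 strong over 50% of cells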
How it was run: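 After a further 30 min incubation, plates were inspected on a standard inverted fluorescence microscope. The fraction of apoptotic nuclei and other apoptosis-specific morphology were scored as 0 for no activity, 1 for weak activity in less than 50% of the cells, and 2 for strong activity in more than 50% of the cells.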

HeLa = experiment: MTS proliferation assay; assay type: cell-based, human; settings: 72 h
How it was run: (§1)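 Cells exposed 72 h under culture conditions to compound at 10, 3, 1 and 0.3 μM final, added in medium with max 5% DMSO. MTS reagent then added for a further 3 h and absorbance read at 492 nm.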

Jurkat = experiment: MTS proliferation assay; assay type: cell-based, human; settings: 72 h
How it was run: as §1

Jily = experiment: MTS proliferation assay; assay type: cell-based; settings: 72 h
How it was run: as §1

MRC5 = experiment: MTS proliferation assay; assay type: cell-based; settings: MRC5, 72 h
How it was run: as §1

SMILES	Hoechst 33342 nuclear staining score, H460 ([1]; conc 0.1)	Hoechst 33342 nuclear staining score, H460 ([1]; conc 0.3)	Hoechst 33342 nuclear staining score, H460 ([1]; conc 1)	Hoechst 33342 nuclear staining score, H460 ([1]; conc 3)	Hoechst 33342 nuclear staining score, HeLa ([1]; conc 0.1)	Hoechst 33342 nuclear staining score, HeLa ([1]; conc 0.3)	Hoechst 33342 nuclear staining score, HeLa ([1]; conc 1)	Hoechst 33342 nuclear staining score, HeLa ([1]; conc 3)	Hoechst 33342 nuclear staining score, Jily ([1]; conc 0.1)	Hoechst 33342 nuclear staining score, Jily ([1]; conc 0.3)	Hoechst 33342 nuclear staining score, Jily ([1]; conc 1)	Hoechst 33342 nuclear staining score, Jily ([1]; conc 3)	Hoechst 33342 nuclear staining score, Jurkat ([1]; conc 0.1)	Hoechst 33342 nuclear staining score, Jurkat ([1]; conc 0.3)	Hoechst 33342 nuclear staining score, Jurkat ([1]; conc 1)	Hoechst 33342 nuclear staining score, Jurkat ([1]; conc 3)	Hoechst 33342 nuclear staining score, MRC5 ([1]; conc 0.1)	Hoechst 33342 nuclear staining score, MRC5 ([1]; conc 0.3)	Hoechst 33342 nuclear staining score, MRC5 ([1]; conc 1)	Hoechst 33342 nuclear staining score, MRC5 ([1]; conc 3)	further results
COc1ccc(S(=O)(=O)n2cc(-c3cccnc3)cc2-c2cc(OC)c(OC)c(OC)c2)cc1 [Example 76, 1-p-Methoxyphenylsulfonyl-4-(3-pyridyl)-2-(3,4,5-trimethoxyphenyl)-pyrrole]	2 (strong activity comprising more than 50% of the cells)	2 (strong activity comprising more than 50% of the cells)	2 (strong activity comprising more than 50% of the cells)	2 (strong activity comprising more than 50% of the cells)	1 (weak activity comprising less than 50% of the cells)	2 (strong activity comprising more than 50% of the cells)	2 (strong activity comprising more than 50% of the cells)	2 (strong activity comprising more than 50% of the cells)	2 (strong activity comprising more than 50% of the cells)	2 (strong activity comprising more than 50% of the cells)	2 (strong activity comprising more than 50% of the cells)	2 (strong activity comprising more than 50% of the cells)	2 (strong activity comprising more than 50% of the cells)	2 (strong activity comprising more than 50% of the cells)	2 (strong activity comprising more than 50% of the cells)	2 (strong activity comprising more than 50% of the cells)	1 (weak activity comprising less than 50% of the cells)	1 (weak activity comprising less than 50% of the cells)	1 (weak activity comprising less than 50% of the cells)	1 (weak activity comprising less than 50% of the cells)	Hoechst 33342 nuclear staining score, PBLs ([1]; conc 0.1): 0; Hoechst 33342 nuclear staining score, PBLs ([1]; conc 0.3): 0; Hoechst 33342 nuclear staining score, PBLs ([1]; conc 1): 0; Hoechst 33342 nuclear staining score, PBLs ([1]; conc 3): 0; pIC50 (HeLa; Homo sapiens): > 6.70; pIC50 (Jurkat; Homo sapiens): > 6.70; pIC50 (Jily): > 6.70; pIC50 (MRC5; Homo sapiens): > 6.70
COc1ccc(S(=O)(=O)n2cc(CNc3ccc(N4CCOCC4)cc3)cc2-c2cccc(OC)c2)cc1 [Example 98]	0	0	0	0	0	0	0	0	0	0	0	0	0	0	0	1 (weak activity comprising less than 50% of the cells)	0	0	0	0	Hoechst 33342 nuclear staining score, PBLs ([1]; conc 0.1): 0; Hoechst 33342 nuclear staining score, PBLs ([1]; conc 0.3): 0; Hoechst 33342 nuclear staining score, PBLs ([1]; conc 1): 0; Hoechst 33342 nuclear staining score, PBLs ([1]; conc 3): 0; pIC50 (HeLa): < 6.00; pIC50 (Jurkat): < 6.00; pIC50 (Jily): < 6.00; pIC50 (MRC5): < 6.00
COc1cc(-c2cc(-c3cccnc3)cn2S(=O)(=O)c2ccc(C(F)(F)F)cc2)cc(OC)c1OC [Example 82]	0	0	2 (strong activity comprising more than 50% of the cells)	2 (strong activity comprising more than 50% of the cells)	0	0	2 (strong activity comprising more than 50% of the cells)	2 (strong activity comprising more than 50% of the cells)	0	0	1 (weak activity comprising less than 50% of the cells)	2 (strong activity comprising more than 50% of the cells)	0	0	2 (strong activity comprising more than 50% of the cells)	2 (strong activity comprising more than 50% of the cells)	0	0	1 (weak activity comprising less than 50% of the cells)	1 (weak activity comprising less than 50% of the cells)	Hoechst 33342 nuclear staining score, PBLs ([1]; conc 0.1): 0; Hoechst 33342 nuclear staining score, PBLs ([1]; conc 0.3): 0; Hoechst 33342 nuclear staining score, PBLs ([1]; conc 1): 0; Hoechst 33342 nuclear staining score, PBLs ([1]; conc 3): 0; pIC50 (HeLa): < 6.00; pIC50 (Jurkat): > 6.00; pIC50 (Jily): < 6.00; pIC50 (MRC5): < 6.00
